According to PMC9851200, “Multiparameter phenotypic screening for endogenous TFEB and TFE3 translocation identifies novel chemical series modulating lysosome function” (Autophagy, 2022):
Where two headings read alike, the source gives them in different places.

How the values were obtained:
Type in all cases: binding
[1] = target: T1, kinases (KINOMEscan panel) (Homo sapiens, UniProt Q6ZN16); settings: NEW KINOMEscan
T1 sequence (Q6ZN16 1-1313): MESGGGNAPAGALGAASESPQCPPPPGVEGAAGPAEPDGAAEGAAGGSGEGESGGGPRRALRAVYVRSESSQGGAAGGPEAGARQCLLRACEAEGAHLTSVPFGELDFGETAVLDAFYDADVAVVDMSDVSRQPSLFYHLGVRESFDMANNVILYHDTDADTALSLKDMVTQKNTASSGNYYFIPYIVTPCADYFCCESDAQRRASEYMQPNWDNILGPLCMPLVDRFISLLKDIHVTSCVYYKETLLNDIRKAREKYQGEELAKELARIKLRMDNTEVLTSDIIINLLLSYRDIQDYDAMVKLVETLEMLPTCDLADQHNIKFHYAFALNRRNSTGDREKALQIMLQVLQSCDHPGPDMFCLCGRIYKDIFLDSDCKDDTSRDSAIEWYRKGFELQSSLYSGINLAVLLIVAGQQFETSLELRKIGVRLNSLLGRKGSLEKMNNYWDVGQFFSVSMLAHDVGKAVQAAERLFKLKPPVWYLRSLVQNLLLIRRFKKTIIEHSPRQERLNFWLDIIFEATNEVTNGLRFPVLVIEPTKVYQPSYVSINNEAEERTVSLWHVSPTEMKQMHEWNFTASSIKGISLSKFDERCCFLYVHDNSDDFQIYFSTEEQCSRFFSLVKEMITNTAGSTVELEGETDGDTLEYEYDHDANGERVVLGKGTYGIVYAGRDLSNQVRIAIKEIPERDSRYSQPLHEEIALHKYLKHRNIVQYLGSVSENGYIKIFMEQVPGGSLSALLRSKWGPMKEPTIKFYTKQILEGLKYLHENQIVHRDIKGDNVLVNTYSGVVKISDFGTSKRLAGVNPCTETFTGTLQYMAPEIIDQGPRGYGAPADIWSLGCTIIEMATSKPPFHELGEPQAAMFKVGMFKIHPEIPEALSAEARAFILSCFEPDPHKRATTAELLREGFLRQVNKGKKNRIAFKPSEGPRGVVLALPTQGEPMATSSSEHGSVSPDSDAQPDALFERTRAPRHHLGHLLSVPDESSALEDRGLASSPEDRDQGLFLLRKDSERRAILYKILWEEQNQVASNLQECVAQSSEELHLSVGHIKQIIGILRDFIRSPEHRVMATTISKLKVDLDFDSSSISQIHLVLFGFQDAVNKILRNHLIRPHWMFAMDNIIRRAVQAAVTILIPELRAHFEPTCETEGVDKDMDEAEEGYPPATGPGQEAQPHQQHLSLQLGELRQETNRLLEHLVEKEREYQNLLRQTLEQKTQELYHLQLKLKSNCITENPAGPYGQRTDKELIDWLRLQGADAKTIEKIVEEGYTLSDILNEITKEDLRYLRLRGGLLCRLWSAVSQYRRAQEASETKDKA

[2] = target: kinases (KINOMEscan panel) (Homo sapiens, UniProt Q9Y6R4); settings: MAP3K4; NEW KINOMEscan
kinases (KINOMEscan panel) (Homo sapiens, UniProt Q9Y6R4), sequence (Q9Y6R4 whole entry): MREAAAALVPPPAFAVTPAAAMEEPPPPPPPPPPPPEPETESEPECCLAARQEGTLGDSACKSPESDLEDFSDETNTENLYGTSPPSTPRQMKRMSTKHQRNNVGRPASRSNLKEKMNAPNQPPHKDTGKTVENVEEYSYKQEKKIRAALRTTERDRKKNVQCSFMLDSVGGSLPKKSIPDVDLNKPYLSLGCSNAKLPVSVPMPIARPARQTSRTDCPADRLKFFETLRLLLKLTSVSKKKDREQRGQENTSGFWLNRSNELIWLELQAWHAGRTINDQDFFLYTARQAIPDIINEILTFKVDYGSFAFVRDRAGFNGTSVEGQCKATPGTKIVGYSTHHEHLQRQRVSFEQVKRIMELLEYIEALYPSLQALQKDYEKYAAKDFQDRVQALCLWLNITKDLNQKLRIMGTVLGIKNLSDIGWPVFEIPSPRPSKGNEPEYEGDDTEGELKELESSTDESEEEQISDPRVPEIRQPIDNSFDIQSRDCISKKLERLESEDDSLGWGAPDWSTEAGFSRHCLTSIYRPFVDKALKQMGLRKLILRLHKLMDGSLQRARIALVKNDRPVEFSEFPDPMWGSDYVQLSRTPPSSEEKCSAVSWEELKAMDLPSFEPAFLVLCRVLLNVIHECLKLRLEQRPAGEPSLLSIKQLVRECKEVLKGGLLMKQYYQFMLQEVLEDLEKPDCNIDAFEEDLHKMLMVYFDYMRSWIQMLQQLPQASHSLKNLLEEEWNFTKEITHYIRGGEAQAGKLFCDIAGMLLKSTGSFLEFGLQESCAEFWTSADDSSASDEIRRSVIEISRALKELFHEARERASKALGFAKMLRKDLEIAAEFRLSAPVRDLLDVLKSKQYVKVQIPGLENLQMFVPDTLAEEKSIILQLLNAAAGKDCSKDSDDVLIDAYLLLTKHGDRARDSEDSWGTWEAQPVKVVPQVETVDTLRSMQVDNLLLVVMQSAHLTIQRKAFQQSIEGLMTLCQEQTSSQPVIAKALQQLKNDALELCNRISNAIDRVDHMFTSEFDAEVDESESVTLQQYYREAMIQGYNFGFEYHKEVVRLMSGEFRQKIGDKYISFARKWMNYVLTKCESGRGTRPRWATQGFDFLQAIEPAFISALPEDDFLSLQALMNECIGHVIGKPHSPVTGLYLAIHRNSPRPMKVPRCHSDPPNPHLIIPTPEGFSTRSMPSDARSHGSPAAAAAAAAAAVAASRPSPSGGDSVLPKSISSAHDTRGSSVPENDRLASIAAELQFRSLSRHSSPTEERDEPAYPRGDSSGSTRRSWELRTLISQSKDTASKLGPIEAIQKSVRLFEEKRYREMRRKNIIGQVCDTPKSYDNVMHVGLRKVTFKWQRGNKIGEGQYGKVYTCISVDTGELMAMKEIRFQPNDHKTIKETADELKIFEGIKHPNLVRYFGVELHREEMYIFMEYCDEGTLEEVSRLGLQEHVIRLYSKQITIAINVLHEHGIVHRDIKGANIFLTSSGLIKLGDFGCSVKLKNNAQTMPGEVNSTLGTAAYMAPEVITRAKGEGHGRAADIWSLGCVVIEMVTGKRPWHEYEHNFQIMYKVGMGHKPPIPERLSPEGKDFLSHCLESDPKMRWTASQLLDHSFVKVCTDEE

[3] = target: kinases (KINOMEscan panel) (Homo sapiens, UniProt Q15569); settings: TESK1; NEW KINOMEscan
[4] = target: kinases (KINOMEscan panel) (Homo sapiens, UniProt Q8IVW4); settings: kinase CDKL3; NEW KINOMEscan
kinases (KINOMEscan panel) (Homo sapiens, UniProt Q8IVW4), sequence (Q8IVW4 whole entry): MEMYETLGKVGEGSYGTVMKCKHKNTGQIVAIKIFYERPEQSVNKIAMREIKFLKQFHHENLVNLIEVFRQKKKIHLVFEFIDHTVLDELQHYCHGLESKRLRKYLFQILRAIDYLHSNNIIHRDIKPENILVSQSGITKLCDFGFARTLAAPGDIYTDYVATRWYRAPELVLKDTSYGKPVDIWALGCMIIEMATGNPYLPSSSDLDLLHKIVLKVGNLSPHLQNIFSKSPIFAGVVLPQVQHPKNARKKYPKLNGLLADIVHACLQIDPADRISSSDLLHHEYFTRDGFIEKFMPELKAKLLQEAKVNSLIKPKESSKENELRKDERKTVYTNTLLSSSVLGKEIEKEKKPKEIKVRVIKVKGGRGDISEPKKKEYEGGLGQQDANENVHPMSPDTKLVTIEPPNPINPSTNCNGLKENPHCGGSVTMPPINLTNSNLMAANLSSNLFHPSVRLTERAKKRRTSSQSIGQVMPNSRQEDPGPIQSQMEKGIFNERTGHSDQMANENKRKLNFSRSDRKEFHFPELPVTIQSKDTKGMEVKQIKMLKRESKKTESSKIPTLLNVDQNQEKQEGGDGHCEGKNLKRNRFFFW

[5] = target: kinases (KINOMEscan panel) (Homo sapiens, UniProt Q02779); settings: kinase MAP3K10; NEW KINOMEscan
[6] = target: kinases (KINOMEscan panel) (Homo sapiens, UniProt Q52WX2); settings: SBK1; NEW KINOMEscan
[7] = target: kinases (KINOMEscan panel) (Homo sapiens, UniProt Q15746); settings: kinase MYLK; NEW KINOMEscan
kinases (KINOMEscan panel) (Homo sapiens, UniProt Q15746), sequence (Q15746 whole entry): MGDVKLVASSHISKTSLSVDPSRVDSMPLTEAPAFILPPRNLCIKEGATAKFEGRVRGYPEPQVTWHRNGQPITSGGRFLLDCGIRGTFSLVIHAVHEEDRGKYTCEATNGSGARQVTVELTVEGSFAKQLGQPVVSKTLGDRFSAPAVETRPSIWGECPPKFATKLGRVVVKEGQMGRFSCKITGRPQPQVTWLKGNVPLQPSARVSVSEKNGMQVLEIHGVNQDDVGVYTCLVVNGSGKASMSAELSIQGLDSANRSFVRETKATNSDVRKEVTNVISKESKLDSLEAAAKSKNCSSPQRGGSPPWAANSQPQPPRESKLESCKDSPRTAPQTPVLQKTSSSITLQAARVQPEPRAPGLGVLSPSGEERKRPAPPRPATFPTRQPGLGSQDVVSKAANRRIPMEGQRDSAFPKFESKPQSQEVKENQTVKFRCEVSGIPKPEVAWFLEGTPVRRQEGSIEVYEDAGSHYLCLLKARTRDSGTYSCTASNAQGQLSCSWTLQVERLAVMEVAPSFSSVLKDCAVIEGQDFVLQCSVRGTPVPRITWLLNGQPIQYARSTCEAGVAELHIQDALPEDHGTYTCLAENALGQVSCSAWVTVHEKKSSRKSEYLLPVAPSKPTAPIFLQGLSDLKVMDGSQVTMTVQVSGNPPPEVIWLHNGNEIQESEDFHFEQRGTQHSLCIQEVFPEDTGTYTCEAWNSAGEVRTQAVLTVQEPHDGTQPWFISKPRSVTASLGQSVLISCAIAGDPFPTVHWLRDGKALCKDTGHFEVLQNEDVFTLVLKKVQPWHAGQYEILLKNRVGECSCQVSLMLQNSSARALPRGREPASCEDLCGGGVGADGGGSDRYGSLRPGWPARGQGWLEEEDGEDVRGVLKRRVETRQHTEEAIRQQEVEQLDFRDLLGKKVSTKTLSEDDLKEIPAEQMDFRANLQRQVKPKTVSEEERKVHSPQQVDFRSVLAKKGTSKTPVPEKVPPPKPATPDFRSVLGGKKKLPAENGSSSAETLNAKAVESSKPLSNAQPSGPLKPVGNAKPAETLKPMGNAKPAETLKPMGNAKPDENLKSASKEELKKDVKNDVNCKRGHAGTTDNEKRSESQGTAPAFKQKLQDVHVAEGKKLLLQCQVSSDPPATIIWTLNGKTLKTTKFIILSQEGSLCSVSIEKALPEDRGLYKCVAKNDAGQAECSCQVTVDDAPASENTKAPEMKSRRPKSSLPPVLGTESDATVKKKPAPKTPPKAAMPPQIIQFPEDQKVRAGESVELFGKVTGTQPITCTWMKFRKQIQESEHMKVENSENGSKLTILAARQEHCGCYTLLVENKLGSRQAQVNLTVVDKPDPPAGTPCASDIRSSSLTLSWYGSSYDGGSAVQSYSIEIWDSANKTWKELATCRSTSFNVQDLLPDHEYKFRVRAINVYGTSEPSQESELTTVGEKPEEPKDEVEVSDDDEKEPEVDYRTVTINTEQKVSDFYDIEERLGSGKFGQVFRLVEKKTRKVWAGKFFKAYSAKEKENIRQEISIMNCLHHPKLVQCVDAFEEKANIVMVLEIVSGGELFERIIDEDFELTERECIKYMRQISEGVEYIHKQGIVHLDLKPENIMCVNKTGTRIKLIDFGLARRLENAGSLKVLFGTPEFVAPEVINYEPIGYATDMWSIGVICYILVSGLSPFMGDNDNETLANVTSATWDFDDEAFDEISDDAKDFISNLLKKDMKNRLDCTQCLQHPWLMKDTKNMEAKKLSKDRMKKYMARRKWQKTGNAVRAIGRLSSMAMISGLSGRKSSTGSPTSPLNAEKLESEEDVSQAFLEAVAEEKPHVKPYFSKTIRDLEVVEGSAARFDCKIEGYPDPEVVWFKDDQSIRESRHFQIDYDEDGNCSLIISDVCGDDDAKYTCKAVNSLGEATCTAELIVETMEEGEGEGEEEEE

[8] = target: T2, kinases (KINOMEscan panel) (Homo sapiens, UniProt P51813); settings: BMX; NEW KINOMEscan
T2 sequence (P51813 1-675): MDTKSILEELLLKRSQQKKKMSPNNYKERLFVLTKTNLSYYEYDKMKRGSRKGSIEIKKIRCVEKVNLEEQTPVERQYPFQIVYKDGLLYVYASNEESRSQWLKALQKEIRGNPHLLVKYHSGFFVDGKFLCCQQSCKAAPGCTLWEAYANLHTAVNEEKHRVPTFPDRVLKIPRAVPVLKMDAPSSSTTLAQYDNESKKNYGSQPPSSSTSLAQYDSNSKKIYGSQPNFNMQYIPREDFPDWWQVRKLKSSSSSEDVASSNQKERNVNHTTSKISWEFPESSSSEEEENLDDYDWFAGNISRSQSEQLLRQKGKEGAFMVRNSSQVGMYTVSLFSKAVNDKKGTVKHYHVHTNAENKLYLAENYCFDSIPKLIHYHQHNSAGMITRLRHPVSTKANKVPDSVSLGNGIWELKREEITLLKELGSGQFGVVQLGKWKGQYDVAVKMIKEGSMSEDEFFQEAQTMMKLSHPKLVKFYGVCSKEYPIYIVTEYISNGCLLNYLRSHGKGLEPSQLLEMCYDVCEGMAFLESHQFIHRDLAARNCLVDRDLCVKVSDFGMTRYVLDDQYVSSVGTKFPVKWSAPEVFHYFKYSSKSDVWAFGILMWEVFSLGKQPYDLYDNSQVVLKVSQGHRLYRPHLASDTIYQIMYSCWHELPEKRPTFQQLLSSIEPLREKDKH

[9] = target: kinases (KINOMEscan panel) (Homo sapiens, UniProt Q9NQU5); settings: PAK6; NEW KINOMEscan
kinases (KINOMEscan panel) (Homo sapiens, UniProt Q9NQU5), sequence (Q9NQU5 whole entry): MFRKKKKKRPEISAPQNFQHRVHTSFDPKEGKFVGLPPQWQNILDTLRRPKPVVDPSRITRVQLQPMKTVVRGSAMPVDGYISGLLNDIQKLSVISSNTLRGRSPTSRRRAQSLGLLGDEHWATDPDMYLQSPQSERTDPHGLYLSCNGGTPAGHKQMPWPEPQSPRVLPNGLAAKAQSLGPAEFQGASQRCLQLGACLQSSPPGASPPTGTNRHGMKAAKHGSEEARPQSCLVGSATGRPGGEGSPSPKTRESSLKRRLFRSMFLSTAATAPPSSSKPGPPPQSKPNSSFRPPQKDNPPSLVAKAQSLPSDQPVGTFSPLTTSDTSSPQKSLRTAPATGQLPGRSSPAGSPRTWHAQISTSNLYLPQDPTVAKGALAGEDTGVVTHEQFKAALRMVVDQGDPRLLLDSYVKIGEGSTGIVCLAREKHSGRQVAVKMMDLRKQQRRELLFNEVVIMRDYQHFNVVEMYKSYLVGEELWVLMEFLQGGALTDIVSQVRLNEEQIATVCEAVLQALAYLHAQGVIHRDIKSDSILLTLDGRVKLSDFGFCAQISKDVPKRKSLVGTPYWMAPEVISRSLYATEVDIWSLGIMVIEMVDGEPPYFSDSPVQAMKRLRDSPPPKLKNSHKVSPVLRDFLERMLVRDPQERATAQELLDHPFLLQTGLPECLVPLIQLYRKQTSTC

[10] = target: kinases (KINOMEscan panel) (Homo sapiens, UniProt Q9BWU1); settings: kinase CDK19; NEW KINOMEscan
[11] = target: kinases (KINOMEscan panel) (Homo sapiens, UniProt Q14680); settings: kinase MELK; NEW KINOMEscan
[12] = target: kinases (KINOMEscan panel) (Homo sapiens, UniProt P49137)
[13] = target: kinases (KINOMEscan panel) (Homo sapiens, UniProt Q9UIK4); settings: kinase DAPK2; NEW KINOMEscan
[14] = target: kinases (KINOMEscan panel) (Homo sapiens, UniProt O96017); settings: kinase CHEK2; NEW KINOMEscan

Row | Compound | KINOMEscan MAP3K15 [1] | KINOMEscan MAP3K4 [2] | KINOMEscan TESK1 [3] | KINOMEscan CDKL3 [4] | KINOMEscan MAP3K10 [5] | KINOMEscan SBK1 [6] | KINOMEscan MYLK [7] | KINOMEscan BMX [8] | KINOMEscan PAK6 [9] | KINOMEscan CDK19 [10] | KINOMEscan MELK [11] | KINOMEscan MAPKAPK2 ([12]; kinase MAPKAPK2, NEW KINOMEscan) | KINOMEscan DAPK2 [13] | KINOMEscan CHEK2 [14] | KINOMEscan MAPKAPK2 [12]
1 | Cc1cccc(-c2nc(Nc3ccc4nn(C)cc4c3)c3ccccc3n2)n1 [NK167] | 21 | 3 | 0 | 12 | 13 | 0 | 19 | 0 | 0 | 24 | 0 | 0 | 0 | 0 | –
2 | Cc1cccc(-c2nc(N(C)c3ccc4ncsc4c3)c3ccccc3n2)n1 [NK-161] | 21 | 0 | 0 | 0 | 1 | 0 | 3 | 6 | 0 | 4 | 2 | – | 0 | 0 | 0
